Patent US5981497A, “Utilization of sophorolipids as therapeutically active substances or cosmetic products, in particular for the treatment of the skin” (Institut Francais du Petrole, priority 1995, dated 1999)
Like-named read-outs stand apart in the source and are kept apart here.

Tests used:
Type in all cases: cell-based
[1] = Cytotoxicity on L929 at 24 hours (neutral red); conditions: mouse, l929 cells, read-out: Cellular Viability Rate; for viability at 24 h, 50000 µM: 5.10-2M; for viability at 24 h, 5000 µM: 5.10-3M; for viability at 24 h, 500 µM: 5.10-4M; for viability at 24 h, 10000 µM: 10^-2M; for viability at 24 h, 1000 µM: 10^-3M; for viability at 24 h, 100 µM: 10^-4M; for viability at 24 h, 10 µM: 10^-5M
From the text: (§1) Their innocuousness and their activity make it possible to use them in other stages of healing, namely granulation and epithelialization, by modulating their concentration in the formulas of products that are used. This is possible only because of the low cytotoxicity of sophorolipids, as Tables 3A and 3B show. The toxicity of the products of the invention has been evaluated with a viability test with neutral red on two cellular types of the skin, cells L929 and other fibroblasts of the dermis and cells NCTC 2544 and keratinocytes of the epidermis. The results, which are presented in Tables 3A, 3B, correspond to the rates of cellular viability that are expressed in % relative to the negative test.

[2] = Cytotoxicity on primocultures at 24 hours (neutral red), fibroblasts; conditions: fibroblasts, 24 hours, read-out: Cellular Viability Rate; for viability at 24 h, 1000 µM: 10^-3M; for viability at 24 h, 100 µM: 10^-4M; for viability at 24 h, 10 µM: 10^-5M; for viability at 24 h, 1 µM: 10^-6M
From the text: as §1

[3] = Cytotoxicity on NCTC2544 at 24 hours (neutral red); conditions: human, nctc2544 cells, read-out: Cellular Viability Rate; for viability at 24 h, 50000 µM: 5.10-2M; for viability at 24 h, 5000 µM: 5.10-3M; for viability at 24 h, 500 µM: 5.10-4M; for viability at 24 h, 10000 µM: 10^-2M; for viability at 24 h, 1000 µM: 10^-3M; for viability at 24 h, 100 µM: 10^-4M; for viability at 24 h, 10 µM: 10^-5M
From the text: as §1

fibroblasts = experiment: Cytotoxicity on primocultures at 24 hours (neutral red), fibroblasts
From the text: as §1

melanocytes = experiment: Melanine dosage in melanocytes after 7 and 14 days; conditions: for activity at 100 µM / activity at 10 µM / activity at 1 µM: Melanocyte, read-out: Melanine content; for activity at 100 µM: 10^-4M; for activity at 10 µM: 10^-5M; for activity at 1 µM: 10^-6M
Experimental: It is noted that cutaneous ageing causes epidermal functions to slow down: melanine no longer comes to the surface of the skin in a homogeneous manner and concentrates inside certain cells, and brown spots appear mainly on the hands, the forearms, and the neckline. […] Residues are picked up in PBS/triton X-100 (1% v/v) and sounds for 30 seconds. The cellular lysate is ultracentrifuged (105,000 rpm for 40 minutes at +4° C.). The residue that is obtained is then picked up in 1 ml of PBS. The proportion of protein is determined by the calorimetric method (Biorad) and then adjusted to 1.5 mg/ml.
100-(content of melanine of the tested product×100/content of melanine TN)
TN corresponds to the negative test.
As a result, again, the galenical forms are diverse. An example of an anti-spot cream for hands that is also used in cosmetics or in therapeutics is provided below, however: […]

| Structure (SMILES) | viability at 24 h, 50000 µM [1] [%] | viability at 24 h, 5000 µM [1] [%] | viability at 24 h, 500 µM [1] [%] | viability at 24 h, 10000 µM [1] [%] | viability at 24 h, 1000 µM [1] [%] | viability at 24 h, 100 µM [1] [%] | viability at 24 h, 10 µM [1] [%] | viability at 24 h, 1000 µM [2] [%] | viability at 24 h, 100 µM [2] [%] | viability at 24 h, 10 µM [2] [%] | viability at 24 h, 1 µM [2] [%] | viability at 24 h, 50000 µM [3] [%] | viability at 24 h, 5000 µM [3] [%] | viability at 24 h, 500 µM [3] [%] | viability at 24 h, 10000 µM [3] [%] | viability at 24 h, 1000 µM [3] [%] | viability at 24 h, 100 µM [3] [%] | viability at 24 h, 10 µM [3] [%] | also measured |
| --- | --- | --- | --- | --- | --- | --- | --- | --- | --- | --- | --- | --- | --- | --- | --- | --- | --- | --- | --- |
| CC1CCCCCC/C=C\CCCCCCCC(=O)O[C@H]2[C@H](O)[C@@H](O)[C@H](O[C@H]3[C@H](O1)O[C@H](CO)[C@@H](O)[C@@H]3O)O[C@@H]2CO (stereo partly drawn) [Sophorolipid in Lactone Form] | 5.65 | 5.44 | 6.63 | 5.26 | 5.71 | 87 | 96.5 | 5.96 | 91.2 | 100 | 101 | 5.86 | 6.44 | 8.7 | 6.49 | 6.17 | 85.2 | 95.5 |  |
| CC(CCCCCC/C=C\CCCCCCCC(=O)O)O[C@@H]1O[C@H](CO)[C@@H](O)[C@H](O)[C@H]1O[C@@H]1O[C@H](CO)[C@@H](O)[C@H](O)[C@H]1O (stereo partly drawn) [Sophorolipid in Acid Form] | 5.47 | 7.62 | 99.2 | 6.18 | 100 | 102 | 101 | 85.7 | 98.3 | 98.7 | 99.7 | 6.35 | 8.34 | 99.9 | 7.12 | 100 | 100 | 101 | times less toxic than the lactone form (fibroblasts; Tables 3A and 3B): 10 times; Cellular Viability Rate (fibroblasts; fibroblasts, 24 hours, 10^-6M, 1 µM): 99.65 % relative to TN; activity at 100 µM (melanocytes; 168 h, at day 7): 56.2%; activity at 10 µM (melanocytes; 168 h, at day 7): 65.8%; activity at 1 µM (melanocytes; 168 h, at day 7): 93.6%; activity at 100 µM (melanocytes; 336 h, at day 14): 56.8%; activity at 10 µM (melanocytes; 336 h, at day 14): 86.4%; activity at 1 µM (melanocytes; 336 h, at day 14): 95.4%; effect on synthesis of melanine (melanocytes; unlike linolenic acid): reduction in the synthesis of melanine |
